The values below come from article PMC6382696, “Drug Repurposing: The Anthelmintics Niclosamide and Nitazoxanide Are Potent TMEM16A Antagonists That Fully Bronchodilate Airways” (Frontiers in Pharmacology, 2019).

By EC50 is commonly meant the concentration that produces a half-maximal response. What is called IC50 is the point on the concentration scale where inhibition reaches its midpoint.

Each structure is given as a SMILES string. Read-outs that look alike come from different tables or passages of the source.

The subject of one series is human ASM cells. Nature of the series: Eact-induced depolarization of human ASM cells (FLIPR membrane potential). Format: cell-based. An excerpt: While the method above using histamine represents the standard protocol we used to evaluate compound effects in blocking pro-contractile depolarization of human BSMCs, for some experiments provided as Supplementary Figures 1–44 we employed the cholinergics methacholine or carbachol instead of histamine, or evaluated if the TMEM16A opener, Eact, could itself act like contractants to induce BSMC membrane depolarization.
3.31 Supplementary Figure 31
Supplementary Figure 31. The small molecule TMEM16A activator, Eact , induces depolarization of primary human airway smooth muscle cells like the contractant carbachol. Kinetic traces from the FLIPR membrane potential assay indicate Eact (A) and carbachol (B) elicit a concentration dependent depolarization of human ASM cells which were serum starved for 4 hours [prf SmGM overnight + 4h prf SmBM]. The potency for Eact depolarization of ASM cells isolated from a normal, asthmatic or COPD patient is shown in panel (C). The […]
report for activation of TMEM16A. RFU, relative fluorescence units. AUC, area under the curve.
(also on this page, place not known: ‘Eact’ Carbachol TMEM16A 3.0 µM A B C)
(1 picture or pasted object on this page, not shown here)

Series [1] concerns human bronchial epithelial ALI cultures. The series is described as follows: Muc5AC secretion from human bronchial epithelial ALI cultures. Format: cell-based. The following applies: 5 μM, 72 hours, p < 0.05. The method, then: (§1) 1.2 Effects of the TMEM16A opener Eact on leukotriene secretion and Muc5AC mucin production from human bronchial epithelial air-liquid interface cultures.
(§2) Normal, asthma and COPD human bronchial epithelial (HBE) cells were from Lonza (Walkersville, MD). Cells were grown on […] transparent PET transwell membranes insert (BD biosciences, San Diego). S-ALI air-liquid interface media (Lonza) was changed every other day until the cells reached confluence, at which time the apical medium was removed to establish an air liquid interface cultures. The basolateral medium was changed every other day. All experimentation was carried out on day 14-18 after ALI establishment. At this point, mature secretory cells are present in these differentiating cultures and the cells respond with maximal […] to IL-13 (10 ng/ml) (Peprotech, […]
(§3) Human ALI cultures from a normal donor were treated with Eact, Eact vehicle and 10 ng/ml IL13 in basolateral medium for 48 hrs.
(§4) After 48hr, 100 µl of basolateral medium were collected for determining leukotriene B4 and C4 secretion using ELISA kits from Enzo Life Sciences, Inc. and LSBio LifeSpan Biosciences Inc., respectively, and by following manufacture’s protocols. […]
(§5) Levels of Muc5AC protein in apical washes was then determined using a Muc5AC ELISA kit (Cosmo Bio USA, Carlsbad, CA) and following the manufacture’s protocol.

The test system is the same in series [2]. Nature of the series: Leukotriene (LTC4, LTB4) secretion from human bronchial epithelial ALI cultures. In kind it is cell-based. The following applies: 48 hrs, p < 0.05. On the procedure: as §1, §2, §3, §4, §5
The next series relates to TMEM16A. The following applies: ref Namkung et al., 2011; read-out: EC50 in activating TMEM16A; cited from earlier work.
The target of a further series is T1, TMEM16A (acd) (Homo sapiens, UniProt Q5XXA6).
T1 sequence (Q5XXA6 1-986): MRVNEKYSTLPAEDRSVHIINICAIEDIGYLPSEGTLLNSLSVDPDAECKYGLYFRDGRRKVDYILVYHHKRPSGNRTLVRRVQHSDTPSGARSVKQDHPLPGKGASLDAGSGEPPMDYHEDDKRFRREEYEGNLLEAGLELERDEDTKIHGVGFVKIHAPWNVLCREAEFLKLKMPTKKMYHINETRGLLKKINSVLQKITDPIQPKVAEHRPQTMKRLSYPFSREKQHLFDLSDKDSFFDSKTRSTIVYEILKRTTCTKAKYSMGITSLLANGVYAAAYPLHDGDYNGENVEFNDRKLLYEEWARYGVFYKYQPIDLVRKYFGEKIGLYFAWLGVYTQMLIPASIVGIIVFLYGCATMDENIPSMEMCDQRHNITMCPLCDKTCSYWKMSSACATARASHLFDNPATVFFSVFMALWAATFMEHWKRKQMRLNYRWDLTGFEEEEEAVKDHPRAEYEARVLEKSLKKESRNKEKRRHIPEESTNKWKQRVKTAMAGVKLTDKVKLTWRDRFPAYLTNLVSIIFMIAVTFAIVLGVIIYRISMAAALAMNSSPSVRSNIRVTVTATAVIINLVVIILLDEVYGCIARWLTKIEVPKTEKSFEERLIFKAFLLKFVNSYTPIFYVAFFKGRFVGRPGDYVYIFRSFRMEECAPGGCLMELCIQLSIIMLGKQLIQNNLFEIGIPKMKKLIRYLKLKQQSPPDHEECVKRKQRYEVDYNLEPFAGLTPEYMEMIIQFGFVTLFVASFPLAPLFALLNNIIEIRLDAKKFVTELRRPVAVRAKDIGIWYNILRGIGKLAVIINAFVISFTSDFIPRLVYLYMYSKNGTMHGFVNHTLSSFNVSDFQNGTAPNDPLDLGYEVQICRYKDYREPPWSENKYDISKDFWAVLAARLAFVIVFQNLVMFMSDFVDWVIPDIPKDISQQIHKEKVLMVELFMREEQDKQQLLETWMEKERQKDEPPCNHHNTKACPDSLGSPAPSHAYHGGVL
The series is described as follows: QPatch whole-cell electrophysiology, HEK293 TMEM16A (acd). In kind it is cell-based. As to conditions: QPatch. An excerpt:
HEK293 cells stably expressing the TMEM16A (acd) variant were purchased from SB Drug Discovery. The HEK293 TMEM16A (abc) stable cell line was from ChanTest and COLO-205 cells were purchased from ATCC. The same standard buffers and recording conditions listed below were used for QPatch studies on all three cell lines.
Recording Solutions: were made weekly as below and stored at room temperature until used. It is recommended not to add ATP to internal solution until immediately before using on the QPatch. The external buffer (in mM) was 140 NaCl, 4 KCl, 2 CaCl2, 1 MgCl2, 10 HEPES, 10 Glucose, pH7.4, while the internal buffer (in mM) was 110 CsCl, 20 TEA-Cl, 5.374 CaCl2, 1.75 MgCl2, 10 EGTA, 10 HEPES, 4 Na2ATP, pH 7.2.
Once established in whole-cell configuration, cells were clamped to a holding potential (Vhold) of 0 mV on 48 well single hole patch plate. A standardized IV protocol was used to elicit ionic current through the TMEM16A chloride channel at 20 s intervals. Steady-state voltage pulses were from −100 mV to +100 mV in +20 mV steps for a duration of 500 ms. After each pulse the voltage was returned to −100 mV for 50 ms to obtain tail currents, and then returned to the holding potential of 0 mV until the beginning of the next sweep. […] This ensures a minimum of 60 s per concentration incubation before measuring current block. Currents were acquired at 10 kHz and filtered at 2 kHz, leak subtraction and Rseries were disabled. A 1 MΩ minimum resistance was set because cells are held in an open channel state and therefore resistance is low.
A cumulative concentration response was measured where each cell is exposed to five concentrations of test article with a dilution factor of 1:5 (e.g., 0.048, 0.24, 1.2, 6, and 30 μM). Cells were recorded for ∼60 s per solution/compound addition. Initially, external solution is applied twice to allow currents to stabilize. Then vehicle (from the saline reservoir) is added twice to monitor any effect 0.3% DMSO might have on currents. This leads directly into the concentration runs by applying Concentration 1 (single addition) for 1 min. Concentration 2 is then applied for the subsequent minute, etc. Recovery/washout was monitored for a final minute with a final external solution addition.
[…] […] Each cell’s current magnitude was then normalized to itself at the initial 0.3% vehicle control period prior to compound application. This step is to account for differences in current size for each cell. Normalized responses to test article were plotted against their concentrations to reveal a concentration-inhibition plot.
A Normalized Group Hill fit was then performed on the plotted results to yield a pooled IC50 value, reconstructed from a minimum of two cells/concentration. The baseline response as well as the full response were constrained to 1 and 0, respectively.
For orientation: The patch-clamp technique gives a direct electrical read-out from membranes.

Another series concerns cytochrome P450 enzymes. Set-up: method as in White, 2004; Anderson and Curran, 2007; Rossignol, 2014. As to conditions: ref White, 2004; Anderson and Curran, 2007; Rossignol, 2014; cited from earlier work.
The target in a further series is T2, hTMEM16A (abc) (Homo sapiens, UniProt Q5XXA6, DEL476-501).
T2 sequence (Q5XXA6 with tags, fused parts or gaps isoform Q5XXA6-5 DEL539-564): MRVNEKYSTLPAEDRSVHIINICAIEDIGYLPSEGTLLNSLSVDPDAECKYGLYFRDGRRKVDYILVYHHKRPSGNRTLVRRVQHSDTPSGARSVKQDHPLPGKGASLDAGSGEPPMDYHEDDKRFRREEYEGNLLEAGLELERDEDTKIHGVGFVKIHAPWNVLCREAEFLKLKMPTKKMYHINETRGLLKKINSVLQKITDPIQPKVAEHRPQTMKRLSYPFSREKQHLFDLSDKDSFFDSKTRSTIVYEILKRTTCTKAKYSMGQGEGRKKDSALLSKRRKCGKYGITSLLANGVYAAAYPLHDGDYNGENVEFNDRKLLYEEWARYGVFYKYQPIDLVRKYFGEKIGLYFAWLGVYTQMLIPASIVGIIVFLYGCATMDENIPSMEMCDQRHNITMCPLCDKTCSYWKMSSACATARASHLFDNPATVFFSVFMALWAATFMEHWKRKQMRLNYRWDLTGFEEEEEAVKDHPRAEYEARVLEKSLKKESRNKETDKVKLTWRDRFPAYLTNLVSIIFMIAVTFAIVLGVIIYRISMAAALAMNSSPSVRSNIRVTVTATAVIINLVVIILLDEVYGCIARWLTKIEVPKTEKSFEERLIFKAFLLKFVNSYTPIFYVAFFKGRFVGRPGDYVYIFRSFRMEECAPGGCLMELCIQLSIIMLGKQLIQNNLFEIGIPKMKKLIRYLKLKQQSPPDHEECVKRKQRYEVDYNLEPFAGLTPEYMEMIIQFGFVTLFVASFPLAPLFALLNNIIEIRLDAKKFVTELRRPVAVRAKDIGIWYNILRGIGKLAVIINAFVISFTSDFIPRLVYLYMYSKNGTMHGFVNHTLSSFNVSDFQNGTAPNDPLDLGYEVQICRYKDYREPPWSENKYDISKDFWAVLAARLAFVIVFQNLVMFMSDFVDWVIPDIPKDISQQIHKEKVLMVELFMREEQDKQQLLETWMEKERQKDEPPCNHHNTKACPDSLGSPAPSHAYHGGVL
The series is described as follows: medchem TMEM16A halide-sensitive YFP assay, 22-point dose-response. Format: cell-based. Set-up: expressed in transfected cells. The method, then:
The TMEM16A HEK293T eYFP (H149Q, I153L) stable cell line for medchem support was generated by transfecting 10 μg of linearized hTMEM16A(abc) DNA constructs into HEK293T eYFP (H149Q,I153L) stable cells. The transfected cells were cultured under 200 μg/ml of hygromycin B selection for 20 days and the stable pool was single cell seeded in 96 well plate and duplicated plate were made after single cell clones were formed. YFP function assay were performed on duplicated plate and clones producing higher changes in fluorescence from the YFP assay were chosen for further expansion to form a stable cell line.
Plates were incubated for 24 h at 37°C with 5% CO2. On the assay day, medium was removed and replaced with 20 μl/well of assay buffer (Hank’s Balanced Salt Solution with 10 mM HEPES pH 7.4), 10 μl/well of 40x diluted compounds was added to assay plate and it was incubated at room temperature for 30 min, after which baseline fluorescence was read in the FLIPR instrument for 10 s. Then, 5 μl/well of a 3x trigger solution (24 mM iodide, 3 μM ionomycin in assay buffer) was added and the fluorescence kinetic trace was recorded for 2 min.

For a further series, the system named is airways. Set-up: method as in Stocks et al., 2014. The following applies: ref Stocks et al., 2014; cited from earlier work.

`COCCN(C(=O)c1cc(OC)c(OC)c(OC)c1)c1nc(-c2ccccc2)cs1` [Eact]: the EC50 in the series on human ASM cells (cells from normal, asthmatic or COPD patient, read-out: average EC50 for depolarizing human ASM cells) was 1000 to 3000 nM; in the series on human ASM cells (read-out: average EC50 for Eact induced ASM depolarization), 1600 nM; in the series on TMEM16A, 3000 nM. Further, the “increase of Muc5AC secretion” value in series [1] is 2–3 fold. In addition, the “increase of leukotriene (LTC4, LTB4) secretion” value in series [2] was 6–12 fold.

For the compound `CC(=O)Oc1ccccc1C(=O)Nc1ncc([N+](=O)[O-])s1` [Nitazoxanide], the IC50 on TMEM16A (acd) (outward current at +100 mV, 170 nM free intracellular calcium, ~60 s per concentration, read-out: TMEM16A Chloride Current (IC50)) came out at 1260 ± 1310 nM; at hTMEM16A (abc) (average, 22-point dose-response, iodide as permeant anion, read-out: TMEM16A eYFP Assay (IC50)), 1230 nM. Also, the “calcium-activated chloride current inhibited” value on TMEM16A (acd) (maximum antagonist activity) is “Over 80%”. Also, the “impact on cytochrome P450 enzymes” value in the series on cytochrome P450 enzymes is on record as “no significant impact”. Further, on hTMEM16A (abc) (up to 55.6 μM), the “scope of block of ionomycin-induced iodide eYFP quenching” value was “partially inhibiting”.

Consider `OCc1cc(C(O)CNCCCCCCOCCCCc2ccccc2)ccc1O` (centres unmarked) [Salmeterol, salmeterol], for which the onset of action in the series with airways was 90 min.
